{"source": "patent US10196657B2", "about": "“Methods of producing 7-carbon chemicals via methyl-ester shielded carbon chain elongation” (INVISTA North America S.á r.l., priority 2012, dated 2019)", "format_in_all_cases": "biochemical", "key": {"[1]": {"test": "ω-transaminase activity assay, reverse direction (7-aminoheptanoate to pimelate semialdehyde)", "details": "cell free extract, 10 mM 7-aminoheptanoate, 10 mM pyruvate, 25° C., 4 h; against empty vector control; FIG. 15", "experimental": "(§1) A sequence encoding an N-terminal His-tag was added to the genes from Chromobacterium violaceum, Pseudomonas syringae, Rhodobacter sphaeroides, and Vibrio Fluvialis encoding the ω-transaminases of SEQ ID NOs: 8, 10, 11 and 13, respectively (see FIGS. 7F and 7G) such that N-terminal HIS tagged ω-transaminases could be produced. Each of the resulting modified genes was cloned into a pET21a expression vector under control of the T7 promoter and each expression vector was transformed into a BL21[DE3] E. coli host. The resulting recombinant E. coli strains were cultivated at 37° C. in a 250 mL shake flask culture containing 50 mL LB media and antibiotic selection pressure, with shaking at 230 rpm. Each culture was induced overnight at 16° C. using 1 mM IPTG.\n(§2) The pellet from each induced shake flask culture was harvested via centrifugation. Each pellet was resuspended and lysed via sonication. The cell debris was separated from the supernatant via centrifugation and the cell free extract was used immediately in enzyme activity assays.\nEnzyme activity assays in the reverse direction (i.e., 7-aminoheptanoate to pimelate semialdehyde) were performed in a buffer composed of a final concentration of 50 mM HEPES buffer (pH=7.5), 10 mM 7-aminoheptanoate, 10 mM pyruvate and 100 μM pyridoxyl 5′ phosphate. […] The formation of L-alanine from pyruvate was quantified via RP-HPLC."}, "[2]": {"test": "ω-transaminase activity assay, forward direction (pimelate semialdehyde to 7-aminoheptanoate)", "experimental": "as §1, §2\nEnzyme activity in the forward direction (i.e., pimelate semialdehyde to 7-aminoheptanoate) was confirmed for the transaminases of SEQ ID NO 10, SEQ ID NO 11 and SEQ ID NO 13. […] The formation of pyruvate was quantified via RP-HPLC."}, "[3]": {"test": "ω-transaminase activity assay, 7-aminoheptanol to 7-oxoheptanol", "experimental": "A nucleotide sequence encoding an N-terminal His-tag was added to the Chromobacterium violaceum, Pseudomonas syringae and Rhodobacter sphaeroides genes encoding the ω-transaminases of SEQ ID NOs: 8, 10 and 11, respectively (see FIGS. 7F and 7G) such that N-terminal HIS tagged ω-transaminases could be produced. The modified genes were cloned into a pET21a expression vector under the T7 promoter. Each expression vector was transformed into a BL21[DE3] E. coli host. Each resulting recombinant E. coli strain were cultivated at 37° C. in a 250 mL shake flask culture containing 50 mL LB media and antibiotic selection pressure, with shaking at 230 rpm. Each culture was induced overnight at 16° C. using 1 mM IPTG.\nas §2\nEnzyme activity assays in the reverse direction (i.e., 7-aminoheptanol to 7-oxoheptanol) were performed in a buffer composed of a final concentration of 50 mM HEPES buffer (pH=7.5), 10 mM 7-aminoheptanol, 10 mM pyruvate, and 100 μM pyridoxyl 5′ phosphate. […] The formation of L-alanine was quantified via RP-HPLC."}}, "data": [{"substance": "SEQ ID NO 11: Rhodobacter sphaeroides ω-transaminase, Genbank Accession No. ABA81135.1", "values": [{"measurement": "acceptance of 7-aminoheptanoate as substrate (formation of L-alanine from pyruvate, RP-HPLC)", "setting": "[1]", "result": "accepted 7-aminoheptanote as substrate"}, {"measurement": "acceptance of pimelate semialdehyde as substrate (formation of pyruvate from L-alanine, RP-HPLC)", "setting": "[2]; cell free extract, 10 mM pimelate semialdehyde, 10 mM L-alanine, 25° C., 4 h, against empty vector control, FIG. 16", "result": "accepted pimelate semialdehyde as substrate"}, {"measurement": "acceptance of pimelate semialdehyde as substrate, synthesizing 7-aminoheptanoate (conclusion from confirmed reversibility)", "setting": "[2]; concluded from reversibility of the ω-transaminase activity", "result": "accepted pimelate semialdehyde as substrate"}, {"measurement": "acceptance of 7-aminoheptanol as substrate (formation of L-alanine, RP-HPLC)", "setting": "[3]; cell free extract, 10 mM 7-aminoheptanol, 10 mM pyruvate, 25° C., 4 h, against empty vector control, FIG. 19", "result": "accepted 7-aminoheptanol as substrate"}, {"measurement": "acceptance of 7-oxoheptanol as substrate, forming 7-aminoheptanol (concluded from reversibility)", "setting": "[3]; concluded from reversibility of the ω-transaminase activity (Example 2)", "result": "accept 7-oxoheptanol as substrate"}]}]}
